Data taken from patent publication US12156880B2, “Heterocyclic RIP1 kinase inhibitors” (Rigel Pharmaceuticals, Inc., priority 2021, dated 2024).
pIC50: −log10 of the molar value.

Assays:
L929 cells = assay: L929 cell necroptosis assay (TNFa + zVAD, CellTiter-Glo recovery); assay type: cell-based, murine; conditions: Mus musculus, L929, 18 h, TNFa 2 ng/mL + zVAD-fmk, read-out: L929-CTG-recovery, L929, TNFa + zVAD (IC50)
Procedure, shortened: (§1)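 Human U937 (50K/well, 60 uM zVAD-fmk medium, plated same day) or murine L929 (10K/well, plated 18 h, then 40 uM zVAD-fmk medium) were grown in RPMI with 10% FBS. Both were pretreated with compound for 1 h at 37 °C before TNFa at 2 ng/mL final. Viability was read by CellTiter-Glo luminescence after 18 h.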

RIPK1 = molecular target: T1, RIPK1 (Homo sapiens, UniProt Q13546); assay: RIPK1 ADP-Glo biochemical kinase assay; conditions: read-out: RIPK1 ADP-Glo Kinase (IC50)
T1 sequence (Q13546 1-671): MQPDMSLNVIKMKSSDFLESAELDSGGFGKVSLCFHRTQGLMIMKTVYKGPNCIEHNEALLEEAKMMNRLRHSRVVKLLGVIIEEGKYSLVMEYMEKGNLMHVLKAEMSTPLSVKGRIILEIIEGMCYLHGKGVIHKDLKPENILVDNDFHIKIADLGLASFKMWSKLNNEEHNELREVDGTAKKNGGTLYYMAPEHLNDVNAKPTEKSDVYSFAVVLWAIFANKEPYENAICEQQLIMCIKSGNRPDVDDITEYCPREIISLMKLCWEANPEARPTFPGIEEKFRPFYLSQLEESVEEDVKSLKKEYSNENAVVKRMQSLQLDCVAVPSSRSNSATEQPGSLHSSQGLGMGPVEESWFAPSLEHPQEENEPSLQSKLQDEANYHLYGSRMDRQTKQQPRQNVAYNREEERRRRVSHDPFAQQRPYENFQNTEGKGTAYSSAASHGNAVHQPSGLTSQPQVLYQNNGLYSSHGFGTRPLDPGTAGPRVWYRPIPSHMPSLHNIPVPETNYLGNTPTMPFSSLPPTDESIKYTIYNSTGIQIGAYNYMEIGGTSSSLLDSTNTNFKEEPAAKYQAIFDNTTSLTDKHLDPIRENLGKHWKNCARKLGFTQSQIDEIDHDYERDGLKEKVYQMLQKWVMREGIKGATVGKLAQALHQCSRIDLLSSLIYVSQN
Procedure, shortened: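 RIPK1 at 31 ng/well in Tris pH 7.4 buffer with MgCl2, BSA, DTT and MnCl2, reacted with compounds (duplicate) for 30 min at 30 °C. ADP formed detected by ADP-Glo: 40 min stop/depletion, then 30 min detection reagent at room temperature; luminescence read.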

[1] = Brain penetration: free brain/plasma ratio in in vivo pharmacokinetic studies; conditions: brain and plasma (unbound); in vivo pharmacokinetic studies in rodents; read-out: free brain/plasma ratio (Bu/Pu)
Procedure: Female C57BL/6 mice are randomly grouped and weighed on Day −1. On the day of the study (Day 0), mice are administered vehicle or test article by oral gavage. Fifteen minutes after oral administration of test agents, each mouse is administered an intraperitoneal (IP) injection of solution containing recombinant human tumor necrosis factor alpha (TNF-a, 25.0 μg) and zVAD-FMK (200 μg). Body temperature is measured at 0 hours (before IP injections) and every hour via rectal probe temperature measuring device. Three (3) hours after IP injections of TNF-a and zVAD/FMK, mice are euthanized by CO2 asphyxiation and blood is collected via cardiac puncture. Serum and plasma are harvested for determination of cytokine and compound levels, respectively. Separate groups of mice (satellite mice) are included for the determination of compound levels in plasma at the time of administration of TNFa/zVAD-FMK. […] Brain penetration may be assessed by evaluating free brain/plasma ratio (Bu/Pu) as measured in vivo pharmacokinetic studies in rodents. […] In this method, the passive membrane permeability (Papp) and the P-gp (P-glycoprotein) substrate efflux potential are determined using a MDCKII-MDR1 cell line as an in vitro model of the effective permeability of a compound through the BBB.

U937 cells = assay: U937 cell necroptosis assay (TNFa + zVAD, CellTiter-Glo recovery); assay type: cell-based; conditions: Homo sapiens, U-937, 18 h, TNFa 2 ng/mL + zVAD-fmk, read-out: U937 Zvad TNF CTG Recovery, U937, TNFa + zVAD (IC50)
Procedure, shortened: as §1

SMILES	pIC50 (RIPK1)	Kp,uu (unbound brain/plasma ratio) [1]	pIC50 (L929 cells)	pIC50 (U937 cells)
Cc1cccc(Cc2cnn(C(=O)N[C@H]3CCc4ccc(C#CC5(O)COC5)cc4N(C)C3=O)c2)n1 [I-120, (S)—N-(8-((3-Hydroxyoxetan-3-yl)ethynyl)-1-methyl-2-oxo-2,3,4,5-tetrahydro-1H-benzo[b]azepin-3-yl)-4-((6-methylpyridin-2-yl)methyl)-1H-pyrazole-1-carboxamide]	7.76	11	6.63	8.02
Cc1ccc(Cc2cnn(C(=O)N[C@H]3COc4ccc(C#CC(C)(C)O)cc4N(C)C3=O)c2)cn1 [I-15, (S)—N-(7-(3-Hydroxy-3-methylbut-1-yn-1-yl)-5-methyl-4-oxo-2,3,4,5-tetrahydrobenzo[b][1,4]oxazepin-3-yl)-4-((6-methylpyridin-3-yl)methyl)-1H-pyrazole-1-carboxamide]	7.71		5.77	7.56
CN1C(=O)[C@@H](NC(=O)n2cc(Cc3cccnc3F)cn2)COc2ccc(C#CC(C)(C)O)cc21 [I-43, (S)-4-((2-Fluoropyridin-3-yl)methyl)-N-(7-(3-hydroxy-3-methylbut-1-yn-1-yl)-5-methyl-4-oxo-2,3,4,5-tetrahydrobenzo[b][1,4]oxazepin-3-yl)-1H-pyrazole-1-carboxamide]	7.75		5.60	7.75
CN1C(=O)[C@@H](NC(=O)c2cc(Oc3ccc(F)nc3)ccn2)COc2ccc(C#CC(C)(C)O)cc21 [I-6, (S)-4-((6-fluoropyridin-3-yl)oxy)-N-(7-(3-hydroxy-3-methylbut-1-yn-1-yl)-5-methyl-4-oxo-2,3,4,5-tetrahydrobenzo[b][1,4]oxazepin-3-yl)picolinamide]	7.39		5.47	7.30

Now from value to compound, other results behind:

pIC50 (RIPK1)	Kp,uu (unbound brain/plasma ratio) [1]	SMILES	pIC50 (L929 cells)	pIC50 (U937 cells)
7.79	1.7	Cc1cccc(Cc2cnn(C(=O)N[C@H]3COc4ccc(C#CC5CCOCC5)cc4N(C)C3=O)c2)n1 [I-104, (S)—N-(5-Methyl-4-oxo-7-((tetrahydro-2H-pyran-4-yl)ethynyl)-2,3,4,5-tetrahydrobenzo[b][1,4]oxazepin-3-yl)-4-((6-methylpyridin-2-yl)methyl)-1H-pyrazole-1-carboxamide]	6.72	8.14
7.77		Cc1cccc(Cc2cnn(C(=O)N[C@H]3CCc4ccc(C#CC(C)(C)O)cc4N(C)C3=O)c2)n1 [I-119, (S)—N-(8-(3-Hydroxy-3-methylbut-1-yn-1-yl)-1-methyl-2-oxo-2,3,4,5-tetrahydro-1H-benzo[b]azepin-3-yl)-4-((6-methylpyridin-2-yl)methyl)-1H-pyrazole-1-carboxamide]	6.39	7.78
7.82		CN1C(=O)[C@@H](NC(=O)c2cc(Oc3cnn(C)c3)ccn2)COc2ccc(C#CC(C)(C)O)cc21 [I-126, (S)—N-(7-(3-hydroxy-3-methylbut-1-yn-1-yl)-5-methyl-4-oxo-2,3,4,5-tetrahydrobenzo[b][1,4]oxazepin-3-yl)-4-((1-methyl-1H-pyrazol-4-yl)oxy)picolinamide]	6.81	8.05
7.69		Cc1nc(Cc2ccnc(C(=O)N[C@H]3COc4ccc(C#CC5COC5)cc4N(C)C3=O)c2)cs1 [I-85, (S)—N-(5-methyl-7-(oxetan-3-ylethynyl)-4-oxo-2,3,4,5-tetrahydrobenzo[b][1,4]oxazepin-3-yl)-4-((2-methylthiazol-4-yl)methyl)picolinamide]	6.60	7.80
